Measured values from patent publication US9346764B2, “Imidazolidinedione compounds and their uses” (HINOVA PHARMACEUTICALS INC., priority 2011, dated 2016).
Where two headings read alike, the source gives them in different places.

Key:
[1] = tested on: human prostate cancer LNCaP cells; assay: Inhibition of the growth of prostate cancer cells (MTT), LNCaP; format: cell-based
Description: (§1) The ability of compounds to inhibit the growth of prostate cancer cells was tested:
(§2) First, the human prostate cancer LNCaP (purchased from ATCC, USA) and 22RV1 (purchased from SIBS) cells were transferred to a RPMI1640 culture medium containing 10% charcoal-stripped fetal bovine serum (FBS). After cultured for three days, the cells were digested with 0.25% trypsin and counted through trypan blue staining. The cells were plated, with 100 μL cell suspension containing 5000 cells per well. 200 μL medium was added to the wells around the cell plate for avoiding edge effects.
(§3) The cell plate was placed in a cell incubator for 30 min, 10 μL of 4 nM R1881 was added into each well and homogeneously mixed. Upon the addition of R1881, the cell plate was placed in a cell incubator and incubated at 37° C., under 5% CO2 for 96 hours. Afterwards, 40 μL of MTT (prepared in PBS, concentration is 2.5 mg/mL) was added into each wells, and incubated at 37° C. for 2 hours. The supernatant was sucked off, and 100 μL of DMSO was added into each well. The plate was shaken by a vibrator for 10 min for dissolving formazan. The plate was read at 570 nm wavelength using a microplate reader in the unit of OD.

[2] = tested on: human prostate cancer 22RV1 cells; assay: Inhibition of the growth of prostate cancer cells (MTT), 22RV1; format: cell-based
Description: as §1, §2, §3

[3] = tested on: prostate specific antigen (PSA); assay: Inhibition of prostate specific antigen (PSA) in 22RV1 cells induced with R1881; format: cell-based; conditions: Homo sapiens, 22Rv1, read-out: 22RV1 (IC50, nM)
Description: (§4) The in vitro biological activity of test compounds of the present invention as androgen receptor antagonist can be tested by the methods as reported in J. Medcinal Chemistry (2010, page 2779-2796 and WO201 1/029392).
(§5) The inhibition activity of these compounds on prostate specific antigen (PSA) was determined using prostate cancer cells (LNCaP and 22RV1). Prostate cancer cells (LNCaP and 22RV1) could be purchased from ATCC, USA. The expression of PSA in cells was induced with the artificially synthesized androgen R1881 (methyltrienolone, androgen receptor activator) to increase the sensitivity of inhibition experiment.

[4] = tested on: prostate specific antigen (PSA); assay: Inhibition of prostate specific antigen (PSA) in LNCaP cells induced with R1881; format: cell-based; conditions: Homo sapiens, read-out: LNCaP (IC50, nM)
Description: as §4, §5

[5] = Pharmacokinetic evaluation in mice; format: in vivo, Kunming mice (KM mice); conditions: male KM mice, 10 mg/kg intragastrically; for Cmax / Tmax: Kunming (KM), mouse, plasma, po, DMSO:PEG400:H2O 1:5:14
Description: Compounds were dissolved in DMSO:PEG400:H2O 1:5:14. The volume of administration was 10 mL/kg. Before testing, the mice fasted for 12 h and drunk water ad libitum. Then, the mice were fed together at 2 h after administration. 0.3 mL of blood were took from 3 mice through retrobulbar venous plexus at 0.5, 1.0, 2.0, 4.0, 6.0 and 24 h after administration, placed in heparinized tubes, and centrifuged for 5 min at 11000 rpm. The plasma was separated and frozen in a refrigerator at −20° C. 100 uL of serum was transferred with a pipettor into a clean plastic centrifuge tube marked with compound's name and time point, and diluted with acetonitrile (CH3CN) and centrifuged. The concentration of drug was analyzed by LC-MS. Serum was stored at −80° C. before analysis.

[6] = growth inhibition, LNCaP cells, R1881 added, 96 hours, MTT, read-out: LNCaP (IC50)
[7] = Homo sapiens, LNCaP, 96 h, read-out: LNCaP (IC50, uM)
[8] = Homo sapiens, 22Rv1, 96 h, read-out: 22RV1 (IC50, uM)
[9] = Homo sapiens, growth inhibition, LNCaP cells, R1881 added, 96 hours, MTT, read-out: LNCaP (IC50)
[10] = Homo sapiens, growth inhibition, 22RV1 cells, R1881 added, 96 hours, MTT, read-out: 22RV1 (IC50)

SMILES | IC50 [3] | IC50 [1, 7] | IC50 [4] | IC50 [2, 8] | IC50 [1, 9] | IC50 [2, 10] | further results
CNC(=O)c1ccc(N2C(=S)N(c3ccc(C#N)c(C(F)(F)F)c3)C(=O)C2(C)C)cc1 [Example 12, 4-{7-[4-cyano-3-(trifluoromethyl)phenyl]-5,5-dimethyl-4-oxo-2-thio-1-imidazolidinyl}-2-deutero-N-trideuteromethyl benzamide] |  |  |  |  |  |  | IC50 [1, 6]: 2.42 µM; IC50 ([2]; growth inhibition, 22RV1 cells, R1881 added, 96 hours, MTT, read-out: 22RV1 (IC50)): 25.8 µM
[2H]C([2H])([2H])NC(=O)c1ccc(N2C(=S)N(c3ccc(C#N)c(C(F)(F)F)c3)C(=O)C23CCC3)cc1F [Example 3] | < 1000 nM | 0.36 µM | < 400 nM | 15 µM |  |  | 
[2H]C([2H])([2H])NC(=O)c1ccc(N2C(=S)N(c3ccc(C#N)c(C(F)(F)F)c3)C(=O)C2(C)C)cc1F [Example 6, 4-{7-[4-cyano-3-(trifluoromethyl)phenyl]-5,5-dimethyl-4-oxo-2-thio-1-imidazolidinyl}-2-fluoro-N-trideuteromethylbenzamide] |  |  |  |  |  |  | Cmax [5]: 10400 ng/mL; Tmax [5]: 6 h; AUC compared with undeuterated compound 17 [5]: significantly increased; Cmax increase compared with undeuterated compound 17 [5]: at least 20%
CNC(=O)c1ccc(N2C(=S)N(c3ccc(C#N)c(C(F)(F)F)c3)C(=O)C2(C)C)cc1F [Example 14, 4-{7-[4-cyano-3-trifluoromethyl-2,6-dideuterophenyl]-5,5-dimethyl-4-oxo-2-thio-1-imidazolidinyl}-2-fluoro-N-trideuteromethyl benzamide] |  |  |  |  |  |  | IC50 [1, 6]: 1.5 µM
CNC(=O)c1ccc(N2C(=S)N(c3ccc(C#N)c(C(F)(F)F)c3)C(=O)C23CCC3)cc1F [Example 1, reference compound] | < 2000 nM | 4.09 µM | < 1000 nM | 26 µM |  |  | 
[2H]c1cc(N2C(=S)N(c3ccc(C#N)c(C(F)(F)F)c3)C(=O)C2(C)C)ccc1C(=O)NC [Example 11, 4-{7-[4-cyano-3-(trifluoromethyl)phenyl]-5,5-dimethyl-4-oxo-2-thio-1-imidazolidinyl}-2-deutero-N-methyl benzamide] |  | 1.75 µM |  | 18.9 µM |  |  | 
CN(C)C(=O)c1ccc(N2C(=S)N(c3ccc(C#N)c(C(F)(F)F)c3)C(=O)C2(C)C)cc1F [Example 5, 4-{7-[4-cyano-3-(trifluoromethyl)phenyl]-5,5-dimethyl-4-oxo-2-thio-1-imidazolidinyl}-2-fluoro-N,N-dimethyl benzamide] | < 1600 nM |  | < 800 nM |  | 2.07 µM | 23.4 µM | 
CC(O)(CS(=O)(=O)c1ccc(F)cc1)C(=O)Nc1ccc(C#N)c(C(F)(F)F)c1 (centres unmarked) [bicalutamide, reference compound] |  |  |  |  | 18.4 µM | 30.9 µM | 
CN(C)C(=O)c1ccc(N2C(=S)N(c3ccc(C#N)c(C(F)(F)F)c3)C(=O)C23CCC3)cc1F [Example 2] | < 1600 nM |  | < 800 nM |  | 1.37 µM | 20.8 µM | 
CNC(=O)c1ccc(N2C(=S)N(c3ccc(C#N)c(C(F)(F)F)c3)C(=O)C2(C)C)cc1F [Example 4, 4-{7-[4-cyano-3-(trifluoromethyl)phenyl]-5,5-dimethyl-4-oxo-2-thio-1-imidazolidinyl}-2-fluoro-N-methyl-benzamide, reference compound] |  |  |  |  |  |  | Cmax [5]: 8450 ng/mL; Tmax [5]: 6 h
